# Assay results from patent publication US20120232070A1, “Use of Indole Derivatives as Nurr-1 Activators for the Application Thereof as a Medicament for the Treatment of Parkinson's Disease” (Laboratoires Fournier SA, priority 2009, published 2012).
# Assays:
# [1] = target: hNurr1_RXRγFL (NURR1/RXRγ heterodimer) (Homo sapiens, UniProt P43354+P48443); experiment: Transactivation assay in Cos-7 cells, NURR-1-Gal4 / RXRγ, luciferase reporter; format: cell-based; details: for Emax: COS-7, read-out: hNurr1_RXRγFL Eff (%), efficacy in % relative to the reference XCT0135908 at 2·10^−5 M (=100%); for EC50: Cos-7 cells, overnight incubation
# Chain of hNurr1_RXRγFL (NURR1/RXRγ heterodimer) (P43354 328-598): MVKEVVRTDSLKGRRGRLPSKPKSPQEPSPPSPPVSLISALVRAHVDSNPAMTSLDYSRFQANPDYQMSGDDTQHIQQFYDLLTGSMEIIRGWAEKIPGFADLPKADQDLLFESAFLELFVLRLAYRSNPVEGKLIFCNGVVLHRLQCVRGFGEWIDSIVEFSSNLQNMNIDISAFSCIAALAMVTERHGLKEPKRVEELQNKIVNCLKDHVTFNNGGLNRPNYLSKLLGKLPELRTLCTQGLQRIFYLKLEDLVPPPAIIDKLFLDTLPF
# Chain of hNurr1_RXRγFL (NURR1/RXRγ heterodimer) (P48443 whole entry, the tested form may be a part): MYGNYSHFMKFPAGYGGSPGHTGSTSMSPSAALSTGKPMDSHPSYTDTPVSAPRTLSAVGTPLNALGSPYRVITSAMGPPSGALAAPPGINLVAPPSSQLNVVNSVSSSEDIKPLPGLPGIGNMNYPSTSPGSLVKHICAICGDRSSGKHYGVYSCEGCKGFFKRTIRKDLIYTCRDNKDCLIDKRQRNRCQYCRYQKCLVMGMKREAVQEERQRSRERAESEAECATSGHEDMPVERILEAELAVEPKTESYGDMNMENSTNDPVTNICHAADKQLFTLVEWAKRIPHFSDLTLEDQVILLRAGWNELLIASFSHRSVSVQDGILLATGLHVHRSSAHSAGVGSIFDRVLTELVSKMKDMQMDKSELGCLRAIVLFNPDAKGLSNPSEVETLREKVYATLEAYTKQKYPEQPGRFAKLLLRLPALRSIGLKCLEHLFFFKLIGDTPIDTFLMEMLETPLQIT
# Method: (§1) First, the capacity of the compounds according to the invention for acting as an activator of the heterodimers formed by the NURR-1 nuclear receptor and the RXR nuclear receptors was measured by an in vitro assay.
# (§2) A transactivation assay was used as a primary screening assay. Cos-7 cells were co-transfected with a plasmid expressing a chimera of the human receptor NURR-1-Gal4, a plasmid expressing the human receptor RXR (RXRα or RXRγ receptor) and a reporter plasmid 5Gal4pGL3-TK-Luc. The transfections were performed by means of a chemical agent (Jet PEI).
# (§3) The transfected cells were distributed in 384-well plates and left resting for 24 hours.
# (§4) After 24 hours, the culture medium was changed. The products according to the invention were added (final concentration between 10^−4 and 3·10^−10 M) to the culture medium. After overnight incubation, luciferase expression was measured after addition of “SteadyGlo” according to the manufacturer's instructions (Promega).
# (§5) 4-[[6-Methyl-2-phenyl-5-(2-prop enyl)-4-pyrimidinyl]amino]-benzoic acid (called XCT0135908, which was described in the article by Wallen-Mackenzie et al. published in Genes & Development 17, pages 3036-3047) at 2·10^−5 M (RXR agonist) was used as reference.
# (§6) The levels of induction (designated by “efficiency”) were calculated relative to the baseline activity of each heterodimer. The results were expressed as a percentage of the level of induction relative to the level of induction obtained with the reference (the level of induction of the reference is arbitrarily taken to be 100%).
# [2] = target: hNurr1_RXRαFL (NURR1/RXRα heterodimer) (Homo sapiens, UniProt P19793+P43354); experiment: Transactivation assay in Cos-7 cells, NURR-1-Gal4 / RXRα, luciferase reporter; format: cell-based; details: for Emax: COS-7, read-out: hNurr1_RXRαFL Eff (%), efficacy in % relative to the reference XCT0135908 at 2·10^−5 M (=100%); for EC50: Cos-7 cells, overnight incubation; for hNurr1_RXRαFL Eff (%): efficacy in % relative to the reference XCT0135908 at 2·10^−5 M (=100%)
# Chain of hNurr1_RXRαFL (NURR1/RXRα heterodimer) (P19793 whole entry, the tested form may be a part): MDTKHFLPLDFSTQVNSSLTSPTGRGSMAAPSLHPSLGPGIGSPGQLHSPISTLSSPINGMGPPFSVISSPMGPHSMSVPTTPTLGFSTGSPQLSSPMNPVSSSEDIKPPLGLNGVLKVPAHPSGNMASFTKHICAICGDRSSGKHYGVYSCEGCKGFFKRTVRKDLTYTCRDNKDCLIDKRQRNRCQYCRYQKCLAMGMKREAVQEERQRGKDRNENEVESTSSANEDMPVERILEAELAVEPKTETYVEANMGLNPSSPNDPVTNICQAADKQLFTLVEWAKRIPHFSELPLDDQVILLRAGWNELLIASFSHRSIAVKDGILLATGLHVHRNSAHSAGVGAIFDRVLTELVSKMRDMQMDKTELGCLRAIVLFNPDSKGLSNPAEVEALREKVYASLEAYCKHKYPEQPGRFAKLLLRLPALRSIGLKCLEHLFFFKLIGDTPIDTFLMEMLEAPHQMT
# Chain of hNurr1_RXRαFL (NURR1/RXRα heterodimer) (P43354 328-598): as the sequence (P43354 328-598) above
# Method: as §1, §2, §3, §4, §5, §6
Structure (SMILES),Emax [1] [%],EC50 [1] [µM],Emax [2] [%],EC50 [2] [µM],hNurr1_RXRγFL Eff (%) ([1]; efficacy in % relative to the reference XCT0135908 at 2·10^−5 M (=100%)),hNurr1_RXRαFL Eff (%) [2] [%]
"O=C(O)c1ccc(Cc2cc3cc(Cl)ccc3n2S(=O)(=O)c2cccc(C(F)(F)F)c2)cc1 [Example 28, 4-[[5-chloro-1-[[3-(trifluoromethyl)phenyl]sulfonyl]-1H-indol-2-yl]-methyl]benzoic acid]",67,0.443,78,0.332,,
"CC(C)(C)c1cccc(S(=O)(=O)n2c(Cc3ccc(C(=O)O)cc3)cc3cc(C(F)(F)F)c(F)cc32)c1 [Example 117, 4-[[1-[[3-(1,1-dimethylethyl)phenyl]sulfonyl]-5-(trifluoro)-6-fluoro-1H-indol-2-yl]methyl]benzoic acid]",73,0.091,84,0.039,,
"Cn1ccc(-c2cccc(S(=O)(=O)n3c(Cc4ccc(C(=O)O)cc4)cc4cc(C(F)(F)F)ccc43)c2)n1 [Example 18, 4-[[1-[[3-(1-methyl-1H-pyrazol-3-yl)phenyl]sulfonyl]-5-(trifluoromethyl)-1H-indol-2-yl]methyl]benzoic acid]",34,0.668,60,0.407,,
COC(=O)c1ccc(Cc2cc3cc(Cl)ccc3n2S(=O)(=O)c2ccc3c(c2)C(C)(C)CO3)cc1 [Example 182],,0.154,,0.055,85,83
"CC(C)c1cccc(S(=O)(=O)n2c(Cc3ccc(C(=O)O)cc3)cc3cc(Cl)ccc32)c1 [Example 51, 4-[[5-chloro-1-[[3-(1-methylethyl)phenyl]sulfonyl]-1H-indol-2-yl]-methyl]benzoic acid]",69,1.13,74,0.801,,
"O=C(O)c1ccc(Cc2cc3cc(C(F)(F)F)ccc3n2S(=O)(=O)c2cc3ccccc3o2)cc1 [Example 122, 4-[[1-[benzofuran-2-sulfonyl]-5-(trifluoromethyl)-1H-indol-2-yl]methyl]benzoic acid]",54,0.68,62,0.353,,
"CC(C)(C)c1cccc(S(=O)(=O)n2c(Cc3cc(F)cc(C(=O)O)c3)cc3cc(C(F)(F)F)ccc32)c1 [Example 200, 3-[[1-[[3-(1,1-dimethylethyl)-phenyl]sulfonyl]-5-trifluoromethyl-1H-indol-2-yl]methyl]-5-fluorobenzoic acid]",,,93,,,
"COc1ccc(C(=O)O)cc1Cc1cc2cc(C(F)(F)F)ccc2n1S(=O)(=O)c1cccc(C(C)(C)C)c1 [Example 208, 3-[[1-[[3-(1,1-dimethylethyl)-phenyl]sulfonyl]-5-trifluoromethyl-1H-indol-2-yl]methyl]-4-methoxybenzoic acid]",,,31,0.24,,
"O=C(O)c1ccc(Cc2cc3cc(C(F)(F)F)ccc3n2S(=O)(=O)c2ccc(C(=O)N3CCOCC3)cc2)cc1 [Example 129, 4-[[1-[4-(morpholine-4-carbonyl)benzenesulfonyl]-5-(trifluoromethyl)-1H-indol-2-yl]methyl]benzoic acid]",,,41,0.804,,
"CN1CCOc2ccc(S(=O)(=O)n3c(Cc4csc(C(=O)O)c4)cc4cc(C(F)(F)F)ccc43)cc21 [Example 74, 4-[[1-[(4-methyl-3,4-dihydro-2H-benzo[1,4]oxazin-6-yl)-sulfonyl]-5-trifluoromethyl-1H-indol-2-yl]methyl]-thiophene-2-carboxylic acid]",,,150,0.04,,
"CC(C)(C)c1cccc(S(=O)(=O)n2c(Cc3cc(F)cc(C(=O)O)c3)cc3cc(C(F)(F)F)ccc32)c1 [Example 201, 3-[[1-[[3-(1,1-dimethylethyl)-phenyl]sulfonyl]-5-trifluoromethyl-1H-indol-2-yl]methyl]-5-fluorobenzoic acid]",,,,,,96
"COc1c(Cc2cc3cc(C(F)(F)F)ccc3n2S(=O)(=O)c2cccc(C(C)(C)C)c2)cccc1C(=O)O [Example 207, 3-[[1-[[3-(1,1-dimethylethyl)-phenyl]sulfonyl]-5-trifluoromethyl-1H-indol-2-yl]methyl]-2-methoxybenzoic acid]",,,48,0.513,,
"CC(C)c1ccc(S(=O)(=O)n2c(Cc3csc(C(=O)O)c3)cc3cc(C(F)(F)F)ccc32)cc1 [Example 72, 4-[[1-[[4-(1-methylethyl)-phenyl]sulfonyl]-5-trifluoromethyl-1H-indol-2-yl]methyl]-thiophene-2-carboxylic acid]",,,131,0.072,,
"COc1ccc(Cc2cc3cc(C(F)(F)F)ccc3n2S(=O)(=O)c2cccc(C(C)(C)C)c2)cc1C(=O)O [Example 202, 3-[[1-[[3-(1,1-dimethylethyl)-phenyl]sulfonyl]-5-trifluoromethyl-1H-indol-2-yl]methyl]-6-methoxybenzoic acid]",,,104,0.019,,
"CC(C)(C)c1cccc(S(=O)(=O)n2c(C(O)c3ccc(C(=O)O)s3)cc3cc(C(F)(F)F)ccc32)c1 (centres unmarked) [Example 91, 5-[[1-[[3-(1,1-dimethylethyl)-phenyl]sulfonyl]-5-trifluoromethyl-1H-indol-2-yl]hydroxymethyl]-thiophene-2-carboxylic acid]",,,100,0.072,,
"Cn1cc(Cc2cc3cc(C(F)(F)F)ccc3n2S(=O)(=O)c2cccc(C(C)(C)C)c2)cc1C(=O)O [Example 87, 4-[[1-[[3-(1,1-dimethylethyl)-phenyl]sulfonyl]-5-trifluoromethyl-1H-indol-2-yl]methyl]-1-methyl-pyrrol-2-yl-carboxylic acid]",,,123,0.03,,
"CC(C)(C)c1cccc(S(=O)(=O)n2c(Cc3cc(C(=O)O)c(F)cc3Cl)cc3cc(C(F)(F)F)ccc32)c1 [Example 203, 3-[[1-[[3-(1,1-dimethylethyl)-phenyl]sulfonyl]-5-trifluoromethyl-M-indol-2-yl]methyl]-4-chloro-6-fluorobenzoic acid]",,,,0.085,,83
"CN1CCOc2ccc(S(=O)(=O)n3c(Cc4ccc(C(=O)O)o4)cc4cc(C(F)(F)F)ccc43)cc21 [Example 75, 5-[[1-[(4-methyl-3,4-dihydro-2H-benzo[1,4]oxazin-6-yl)-sulfonyl]-5-trifluoromethyl-1H-indol-2-yl]methyl]-furan-2-carboxylic acid]",,,114,0.066,,
"CC(C)(C)c1cccc(S(=O)(=O)n2c(Cc3cc(C(=O)O)ccc3F)cc3cc(C(F)(F)F)ccc32)c1 [Example 199, 3-[[1-[[3-(1,1-dimethylethyl)-phenyl]sulfonyl]-5-trifluoromethyl-1H-indol-2-yl]methyl]-4-fluorobenzoic acid]",,,118,0.022,,
"C=C(c1ccc(C(=O)O)s1)c1cc2cc(C(F)(F)F)ccc2n1S(=O)(=O)c1cccc(C(C)(C)C)c1 [Example 96, 5-[1-[1-[[3-(1,1-dimethylethyl)-phenyl]sulfonyl]-5-(trifluoromethyl)-1H-indol-2-yl]-1-ethenyl]-thiophene-2-carboxylic acid]",,,54,0.339,,
"O=C(O)c1ccc(Cc2cc3cc(Cl)ccc3n2S(=O)(=O)c2ccc3c(c2)OCCO3)o1 [Example 79, 5-[[5-chloro-1-[(2,3-dihydro-benzo[1,4]dioxin-6-yl)sulfonyl]-1H-indol-2-yl]methyl]-furan-2-carboxylic acid]",,,147,0.724,,
"CN1CCOc2ccc(S(=O)(=O)n3c(Cc4cc(C(=O)O)co4)cc4cc(C(F)(F)F)ccc43)cc21 [Example 76, 5-[[1-[[4-methyl-3,4-dihydro-2H-benzo[1,4]oxazin-6-yl)-sulfonyl]-5-trifluoromethyl-1H-indol-2-yl]methyl]-furan-3-carboxylic acid]",,,138,0.063,,
"CC(C)(C)c1cccc(S(=O)(=O)n2c(Cc3ccc(C(=O)O)cc3Cl)cc3cc(C(F)(F)F)ccc32)c1 [Example 205, 4-[[1-[[3-(1,1-dimethylethyl)-phenyl]sulfonyl]-5-trifluoromethyl-1H-indol-2-yl]methyl]-3-chlorobenzoic acid]",,,75,0.098,,
O=C(O)c1cc(Cc2cc3cc(Cl)ccc3n2S(=O)(=O)c2ccc3c(c2)OCCO3)cs1 [Example 78],,,116,0.331,,
"CC(C)(C)c1cccc(S(=O)(=O)n2c(C(=O)c3ccc(C(=O)O)s3)cc3cc(C(F)(F)F)ccc32)c1 [Example 94, 5-[[1-[[3-(1,1-dimethylethyl)-phenyl]sulfonyl]-5-trifluoromethyl-1H-indol-2-yl]-carbonyl]-thiophene-2-carboxylic acid]",,,106,1.24,,
"CC(C)(C)c1cccc(S(=O)(=O)n2c(C(C)(O)c3ccc(C(=O)O)s3)cc3cc(C(F)(F)F)ccc32)c1 (centres unmarked) [Example 95, 5-[1-[1-[[3-(1,1-dimethylethyl)-phenyl]sulfonyl]-5-(trifluoromethyl)-1H-indol-2-yl]-1-hydroxyethyl]-thiophene-2-carboxylic acid]",,,99,0.209,,
